Measured values from patent US10513731B2, “Modified nucleotides” (Illumina Cambridge Limited, priority 2002, dated 2019).

Legend:
[1] = tested on: DNA polymerase; details: eight termination assays, each with a different DNA polymerase; cited from earlier work
[2] = target: T1, polymerase (Thermococcus sp. 9° N exo −Y409V A485L) (Thermococcus sp., UniProt Q56366, A485L/D141A/E143A/Y409V); experiment: Enzyme incorporation of 3′-blocked dNTPs on a P32-labelled DNA primer/template, followed by a chase with native nucleoside triphosphates; type: biochemical
T1 construct: purchased New England Biolabs
T1 sequence (Q56366 whole entry D141A/E143A/Y409V/A485L): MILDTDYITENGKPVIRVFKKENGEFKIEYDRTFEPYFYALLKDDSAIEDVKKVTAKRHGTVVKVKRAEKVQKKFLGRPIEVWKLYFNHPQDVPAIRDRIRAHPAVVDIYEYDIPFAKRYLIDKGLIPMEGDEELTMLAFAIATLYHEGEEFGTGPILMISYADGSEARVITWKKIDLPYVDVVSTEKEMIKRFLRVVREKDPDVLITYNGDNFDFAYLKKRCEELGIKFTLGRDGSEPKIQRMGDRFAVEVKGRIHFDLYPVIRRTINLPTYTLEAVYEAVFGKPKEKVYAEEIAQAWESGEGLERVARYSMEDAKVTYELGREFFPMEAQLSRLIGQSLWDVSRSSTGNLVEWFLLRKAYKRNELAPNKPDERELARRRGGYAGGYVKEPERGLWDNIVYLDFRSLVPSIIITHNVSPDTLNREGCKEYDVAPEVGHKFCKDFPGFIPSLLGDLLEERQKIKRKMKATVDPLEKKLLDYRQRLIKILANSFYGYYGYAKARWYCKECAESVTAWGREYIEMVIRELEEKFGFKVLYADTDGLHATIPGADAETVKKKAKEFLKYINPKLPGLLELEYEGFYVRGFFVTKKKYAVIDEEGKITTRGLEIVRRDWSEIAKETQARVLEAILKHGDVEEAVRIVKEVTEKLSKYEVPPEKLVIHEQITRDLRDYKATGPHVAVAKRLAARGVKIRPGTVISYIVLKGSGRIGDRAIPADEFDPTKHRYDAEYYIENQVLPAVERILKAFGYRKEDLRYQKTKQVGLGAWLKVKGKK
Experimental: (§1) To a 100 nM DNA primer/template (primer previously labelled with P32 and T4 polynucleotide kinase) in Tris-HCl pH 8.8 50 mM, Tween-20 0.01%, and MgSO4 4 mM, add 2 μM compound 6 and 100 nM polymerase (Thermococcus sp. 9° N exo ^−Y409V A485L supplied by New England Biolabs). The template consists of a run of 10 adenine bases to show the effect of the block. The reaction is heated to 65 C for 10 mins. To show complete blocking, a chase is performed with the four native, unblocked nucleoside triphosphates.
as §1, with “compound 38” for “compound 6”

[3] = target: T1, polymerase (Thermococcus sp. 9° N exo −Y409V A485L); experiment: Multiple cycles of incorporation, deblocking and capping on hairpin DNA attached to streptavidin beads, analysed by gel; type: biochemical; details: 2 μM FFN, 100 nM polymerase, 65° C. 10-15 minutes; deblocking with TCEP 0.1M, 65° C. 15 minutes
Experimental: By attaching a hairpin DNA (covalently attached self complementary primer/template) to a streptavidin bead The reaction can be performed over multiple cycles as shown in FIGS. 5 and 6.
Remove the storage buffer and wash the beads 3 times with TE buffer (Tris-HCl pH 8, 10 mM and EDTA, 1 mM). Resuspend in B & W buffer (10 mM Tris-HCl pH 7.5, 1 mM EDTA and 2.0 M NaCl), add biotinylated ^32P labelled hairpin DNA with appropriate overhanging template sequence. Allow to stand at room temperature for 15 minutes. Remove buffer and wash beads 3 times TE buffer.
To a solution of Tris-HCl pH 8.8 50 mM, Tween-20 0.01%, MgSO4 4 mM, MnCl2 0.4 mM (except cycle 1, 0.2 mM), add 2 μM FFN and 100 nM polymerase. This solution is then added to the beads and mixed thoroughly and incubated at 65° C. for 10-15 minutes. The reaction mixture is removed and the beads washed 3 times with TE buffer.
Tris-(2-carboxyethyl)phosphines trisodium salt (TCEP) (0.1M) is added to the beads and mixed thoroughly. The mixture was then incubated at 65° C. for 15 minutes. The deblocking solution is removed and the beads washed 3 times with TE buffer. […]
The reaction products can be analysed by placing the bead solution in the well of a standard 12% polyacrylamide DNA sequencing gel in 40% formamide loading buffer. […]

| SMILES | ability to terminate DNA synthesis [1] | incorporation of the blocked nucleotide ([2]; 2 μM compound, 100 nM polymerase, 100 nM primer/template, template with run of 10 adenine bases, 65 C for 10 mins) | block to further incorporation ([2]; chase with the four native, unblocked nucleoside triphosphates) | cycles of incorporation [3] |
| --- | --- | --- | --- | --- |
| C=CCO[C@H]1C[C@H](n2cnc3c(N)ncnc32)O[C@@H]1COP(=O)(O)OP(=O)(O)OP(=O)(O)O [3′-allyl dATP, 3′allyl deoxyriboadenosine 5′-triphosphate] | terminate DNA synthesis in a single termination assay, out of eight |  |  |  |
| CCN1/C(=C/C=C/C2=[N+](CCCCCC(=O)NCCSSCCC(=O)NCC#Cc3cn(C4CC(OCN=[N+]=[N-])C(COP(=O)(O)OP(=O)(O)OP(=O)(O)O)O4)c(=O)[nH]c3=O)c3ccc(S(=O)(=O)[O-])cc3C2(C)C)C(C)(C)c2cc(S(=O)(=O)O)ccc21 (centres unmarked) [compound 6] |  | Quantitative incorporation | effective block to further incorporation | six |
| CCN1/C(=C/C=C/C2=[N+](CCCCCC(=O)NCCSSCCC(=O)NCC#Cc3cn([C@H]4CC(OCN=[N+]=[N-])[C@@H](COP(=O)(O)OP(=O)(O)OP(=O)(O)O)O4)c4nc(N)[nH]c(=O)c34)c3ccc(S(=O)(=O)[O-])cc3C2(C)C)C(C)(C)c2cc(S(=O)(=O)O)ccc21 (some centres unmarked) [compound 24] |  |  |  | Two and two |
